Results on ten compounds are retold here after ChEMBL document CHEMBL1201862, “PubChem BioAssay data set” (2004).

Some test systems named below: A549; EKVX; HCT-15; HL-60; HT-29; IGROV-1; KM12; MDA-MB-231; MDA-N; NCI-H226; NCI-H522; OVCAR-4; OVCAR-5; RXF 393; SF-539; SK-MEL-2; SW-620; U-251; UACC-257; UO-31.
Holding throughout (assay): growth of human tumour cells (NCI), 48 h

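Assay format: 96-well plates, 48-hour exposure. GI50: concentration for 50% inhibition of growth.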 Calls of active or inactive are those of the source. No stated cut-off is given here; in the data, active = GI50 up to about 1.1 µM and inactive = higher. Bounds are passed on as bounds.

Consider `CC(C)C(C)/C=C\C(C)C1CCC2C3=CC=C4CC(O)CCC4(C)C3CCC21C` (stereo not given), for which the GI50 with A549 is > 100 µM (inactive); in the experiment with EKVX it was > 39.4 µM (inactive); in the experiment on HCT-15, over 42.8 µM; with HL-60, 32.6 µM (inactive); with HT-29, 33.3 µM (inactive); with IGROV-1 it was 31.4 µM (inactive). Further, the GI50 in the experiment with KM12 was > 54.8 µM (inactive); in the experiment on MDA-MB-231, > 40.6 µM (inactive); in the experiment with MDA-N, > 46.2 µM (inactive); in the experiment with NCI-H226, > 38 µM (inactive); with NCI-H522, 38.6 µM (inactive); in the experiment on OVCAR-4, > 100 µM (inactive). The GI50 in the experiment on OVCAR-5 is > 100 µM (inactive); with RXF 393 it was > 42.5 µM (inactive); in the experiment with SF-539, > 44.6 µM (inactive); in the experiment with SK-MEL-2, > 62.1 µM (inactive); in the experiment with SW-620, > 49.3 µM (inactive); with U-251, > 31.8 µM (inactive). Besides, the GI50 was > 76.9 µM (inactive) in the experiment on UACC-257 and > 48.3 µM (inactive) in the experiment with UO-31.

`S=C(N/N=C(\c1ccccc1)c1ccccn1)NC1CCCCC1`: the GI50 was 13.9 µM (inactive) with A549; 1.4 µM (inactive) in the experiment on EKVX; 1.02 µM in the experiment with HCT-15; 0.16 µM (active) with HL-60; 0.274 µM (active) in the experiment on HT-29; 0.31 µM (active) in the experiment on IGROV-1. Besides, the GI50 is 13.1 µM (inactive) in the experiment with KM12; 1.57 µM (inactive) in the experiment on MDA-MB-231; 78.7 µM (inactive) in the experiment on MDA-N; 3.85 µM (inactive) with NCI-H226; 1.94 µM (inactive) with NCI-H522; 7.91 µM (inactive) in the experiment with OVCAR-4. Moreover, the GI50 in the experiment with OVCAR-5 was > 88.1 µM (inactive); in the experiment with RXF 393 it was > 100 µM (inactive); in the experiment with SF-539 it was 3.08 µM (inactive); in the experiment with SK-MEL-2 it was > 94.6 µM (inactive); with SW-620, 1.19 µM (inactive); in the experiment with U-251, 0.979 µM (active). For the same compound, the values for the GI50 in the experiment with UACC-257 and with UO-31 were 2.24 µM (inactive) and 12.9 µM (inactive), respectively.

As to `CCCCCCCCCCCCCC(=O)OC(/C=C/C(C)C)C(O)C(O)C(OC)C(=O)NC1CCCCNC1=O` (stereo not given), the GI50 in the experiment on A549 was 0.257 µM (active); in the experiment on EKVX it was 3.82 µM (inactive); in the experiment with HCT-15, 1.43 µM; in the experiment with HL-60, 0.9 µM (active); with HT-29 it was 0.927 µM (active); in the experiment with IGROV-1, 0.527 µM (active). The GI50 is 0.448 µM (active) with KM12; 2.58 µM (inactive) with MDA-MB-231; 9.04 µM (inactive) in the experiment on MDA-N; 2.39 µM (inactive) in the experiment on NCI-H226; 0.836 µM (active) in the experiment with NCI-H522; 1.86 µM (inactive) in the experiment with OVCAR-4. The GI50 is 3.65 µM (inactive) in the experiment with OVCAR-5; 0.789 µM (active) in the experiment with RXF 393; 1.38 µM (inactive) with SF-539; 2.65 µM (inactive) in the experiment on SK-MEL-2; 0.372 µM (active) in the experiment on SW-620; 0.673 µM (active) with U-251. In addition, the GI50 with UACC-257 was 2.84 µM (inactive); in the experiment on UO-31, 0.989 µM (active).

Take `CCNC(=S)/N=c1\sc(NCC)nc2sc3c(c12)CCN(N1CCc2c(sc4nc(NCC)s/c(=N\C(=S)NCC)c24)C1)C3`: the GI50 in the experiment on A549 is 82.4 µM (inactive); in the experiment on EKVX, > 100 µM (inactive); in the experiment with HCT-15, over 100 µM; with HL-60, 98.2 µM (inactive); in the experiment on HT-29 it was 41.1 µM (inactive); with IGROV-1, 39.8 µM (inactive). In addition, the GI50 was 40.2 µM (inactive) in the experiment with KM12; 29.5 µM (inactive) with MDA-MB-231; 91.4 µM (inactive) with MDA-N; 24.9 µM (inactive) in the experiment with NCI-H226; 65.6 µM (inactive) in the experiment with NCI-H522; 86.1 µM (inactive) in the experiment on OVCAR-4. Besides, the GI50 in the experiment on OVCAR-5 is > 100 µM (inactive); in the experiment with RXF 393, 8.93 µM (inactive); in the experiment on SF-539, 15.5 µM (inactive); in the experiment with SK-MEL-2, > 100 µM (inactive); in the experiment on SW-620 it was 34.7 µM (inactive); in the experiment on U-251, 33.3 µM (inactive). Besides, the GI50 in the experiment with UACC-257 and in the experiment on UO-31 was > 100 µM (inactive) each time.

Take `CC(C)c1c(O[Si](C(C)C)(C(C)C)C(C)C)c2c3c(ccc4c3c1OC4(C)C)C(C)CC2` (stereo not given): the GI50 is > 100 µM (inactive) in the experiment with A549; > 100 µM (inactive) in the experiment on EKVX; over 100 µM in the experiment on HCT-15; > 100 µM (inactive) in the experiment with HL-60; > 100 µM (inactive) in the experiment with HT-29; > 100 µM (inactive) in the experiment with IGROV-1. Besides, the GI50 in the experiment on KM12, with MDA-MB-231, with MDA-N, in the experiment on NCI-H226, in the experiment on NCI-H522 and with OVCAR-4 was > 100 µM (inactive) throughout. The GI50 in the experiment with OVCAR-5, with RXF 393, in the experiment with SF-539, in the experiment with SK-MEL-2, in the experiment with SW-620 and in the experiment with U-251 was > 100 µM (inactive) in each case. Further, the GI50 in the experiment on UACC-257 and in the experiment on UO-31 was > 100 µM (inactive) throughout.

For `CC1=NN(c2ccc(C)cc2)C2(C1)SCC(=O)N2c1nc2ccccc2s1` (stereo not given), the GI50 is 31.5 µM (inactive) in the experiment with A549; 21.9 µM (inactive) in the experiment with EKVX; 20.5 µM in the experiment with HCT-15; 13.1 µM (inactive) in the experiment on HL-60; 30.5 µM (inactive) with HT-29; 12.9 µM (inactive) with IGROV-1. For the same compound, the GI50 was 27 µM (inactive) with KM12; 15.5 µM (inactive) with MDA-MB-231; 20.7 µM (inactive) with MDA-N; 11.3 µM (inactive) in the experiment with NCI-H226; 16.7 µM (inactive) in the experiment with NCI-H522; 20.2 µM (inactive) in the experiment on OVCAR-4. Further, the GI50 with OVCAR-5 is 37.2 µM (inactive); in the experiment with RXF 393, 13.3 µM (inactive); with SF-539, 19 µM (inactive); with SK-MEL-2, 21.6 µM (inactive); in the experiment with SW-620, 24.3 µM (inactive); in the experiment on U-251, 16.6 µM (inactive). Further, the GI50 in the experiment on UACC-257 is 19.5 µM (inactive); in the experiment with UO-31 it was 22.9 µM (inactive).

As for `O=C1C(Cl)C2(CC(/C=C/c3ccccc3)=NN2c2cccc(S(=O)(=O)O)c2)N1c1nc2ccccc2s1` (stereo not given), the GI50 with A549 is 15.3 µM (inactive); in the experiment with EKVX, 19.2 µM (inactive); in the experiment on HCT-15 it was 15.9 µM; in the experiment on HL-60, 14.9 µM (inactive); in the experiment with HT-29 it was 19.4 µM (inactive); in the experiment on IGROV-1, 8.55 µM (inactive). Also, the GI50 was 16.3 µM (inactive) in the experiment with KM12; 12.2 µM (inactive) in the experiment with MDA-MB-231; 24.2 µM (inactive) with MDA-N; 17.7 µM (inactive) in the experiment on NCI-H226; 6.53 µM (inactive) in the experiment with NCI-H522; 16.4 µM (inactive) in the experiment with OVCAR-4. Besides, the GI50 was 18.1 µM (inactive) in the experiment on OVCAR-5; 7.83 µM (inactive) with RXF 393; 15.3 µM (inactive) in the experiment with SF-539; 17.3 µM (inactive) in the experiment with SK-MEL-2; 28.8 µM (inactive) in the experiment on SW-620; 14.7 µM (inactive) in the experiment with U-251. The GI50 was 17.8 µM (inactive) in the experiment with UACC-257 and 4.32 µM (inactive) in the experiment with UO-31.

`CC(C)(C)OC(=O)N1C(OP(=O)(Oc2ccccc2)Oc2ccccc2)=COc2cccnc21`: the GI50 in the experiment with A549 is 46.6 µM (inactive); in the experiment on EKVX, 60.7 µM (inactive); in the experiment on HCT-15, 48.8 µM; with HL-60 it was 16.2 µM (inactive); in the experiment on HT-29, 82.6 µM (inactive); in the experiment with IGROV-1, 42.6 µM (inactive). For the same compound, the GI50 in the experiment on KM12 was 31.4 µM (inactive); with MDA-MB-231, 71 µM (inactive); with MDA-N, 36.3 µM (inactive); with NCI-H226 it was 69.8 µM (inactive); in the experiment with NCI-H522 it was 47 µM (inactive); with OVCAR-4 it was 45.8 µM (inactive). Moreover, the GI50 is > 100 µM (inactive) with OVCAR-5; 91.8 µM (inactive) in the experiment on RXF 393; > 100 µM (inactive) in the experiment with SF-539; 22.3 µM (inactive) in the experiment on SK-MEL-2; 38.9 µM (inactive) in the experiment with SW-620; 40.5 µM (inactive) with U-251. Moreover, the GI50 in the experiment with UACC-257 was 30 µM (inactive); in the experiment with UO-31 it was 42.9 µM (inactive).

As to `Cc1cc(C)nc(NS(=O)(=O)c2ccc(NNC(=O)c3cccc4c(NNc5ccc(S(=O)(=O)Nc6nc(C)cc(C)n6)cc5)c5ccccc5nc34)cc2)n1`, the GI50 was 30.5 µM (inactive) in the experiment on A549; 18.7 µM (inactive) in the experiment with EKVX; 19.7 µM with HCT-15; 20.7 µM (inactive) in the experiment on HL-60; 21.8 µM (inactive) with HT-29; 20 µM (inactive) in the experiment with IGROV-1. Moreover, the GI50 with KM12 was 17.8 µM (inactive); in the experiment on MDA-MB-231 it was 14.6 µM (inactive); with MDA-N, 20.9 µM (inactive); in the experiment on NCI-H226, 25.2 µM (inactive); in the experiment with NCI-H522 it was 18.1 µM (inactive); in the experiment with OVCAR-4, 23.3 µM (inactive). In addition, the GI50 is 20.1 µM (inactive) with OVCAR-5; 20.8 µM (inactive) in the experiment with RXF 393; 20.3 µM (inactive) with SF-539; 23.6 µM (inactive) in the experiment with SK-MEL-2; 22.1 µM (inactive) with SW-620; 22.9 µM (inactive) in the experiment with U-251. Also, the GI50 in the experiment with UACC-257 is 31 µM (inactive); in the experiment with UO-31 it was 18.9 µM (inactive).

With `CN(C)CC1=Nc2cccc3cccc(c23)N1`, the GI50 in the experiment on A549 is 67.8 µM (inactive); with EKVX, 17.2 µM (inactive); with HCT-15, 23.8 µM; with HL-60 it was 13.2 µM (inactive); with HT-29 it was 22.8 µM (inactive); with IGROV-1 it was 18.5 µM (inactive). Besides, the GI50 was 25.6 µM (inactive) in the experiment on KM12; 17.8 µM (inactive) with MDA-MB-231; 18.4 µM (inactive) in the experiment on MDA-N; 20.3 µM (inactive) with NCI-H226; 1.89 µM (inactive) in the experiment on NCI-H522; 13.3 µM (inactive) with OVCAR-4. Also, the GI50 in the experiment on OVCAR-5 is 17.4 µM (inactive); with RXF 393, 17.9 µM (inactive); with SF-539, 19.8 µM (inactive); in the experiment on SK-MEL-2 it was 17.4 µM (inactive); in the experiment on SW-620, 4.08 µM (inactive); with U-251, 16.8 µM (inactive). Also, the GI50 is 16.9 µM (inactive) with UACC-257 and 9.16 µM (inactive) with UO-31.
